Test results published in patent US8071605B2, “Piperidine compounds for use in the treatment of bacterial infections” (AstraZeneca AB, priority 2008, dated 2011).

target: S. aureus GyrB ATPase (Staphylococcus aureus, UniProt P0A0K8); test: S. aureus GyrB ATPase inhibition (ammonium molybdate/malachite green phosphate detection); type: biochemical; details: compound concentration of 1 μM (unless otherwise noted)
Procedure, shortened: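 S. aureus GyrB (250 pM) with E. coli GyrA (250 pM), 250 μM ATP and sheared DNA in pH 7.5 Hepes; phosphate release by malachite green/molybdate at 650 nm. Values are percent inhibition at 1 μM compound unless noted, against 2% DMSO and EDTA controls.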

S. aureus GyrB ATPase, sequence (P0AES4 whole entry): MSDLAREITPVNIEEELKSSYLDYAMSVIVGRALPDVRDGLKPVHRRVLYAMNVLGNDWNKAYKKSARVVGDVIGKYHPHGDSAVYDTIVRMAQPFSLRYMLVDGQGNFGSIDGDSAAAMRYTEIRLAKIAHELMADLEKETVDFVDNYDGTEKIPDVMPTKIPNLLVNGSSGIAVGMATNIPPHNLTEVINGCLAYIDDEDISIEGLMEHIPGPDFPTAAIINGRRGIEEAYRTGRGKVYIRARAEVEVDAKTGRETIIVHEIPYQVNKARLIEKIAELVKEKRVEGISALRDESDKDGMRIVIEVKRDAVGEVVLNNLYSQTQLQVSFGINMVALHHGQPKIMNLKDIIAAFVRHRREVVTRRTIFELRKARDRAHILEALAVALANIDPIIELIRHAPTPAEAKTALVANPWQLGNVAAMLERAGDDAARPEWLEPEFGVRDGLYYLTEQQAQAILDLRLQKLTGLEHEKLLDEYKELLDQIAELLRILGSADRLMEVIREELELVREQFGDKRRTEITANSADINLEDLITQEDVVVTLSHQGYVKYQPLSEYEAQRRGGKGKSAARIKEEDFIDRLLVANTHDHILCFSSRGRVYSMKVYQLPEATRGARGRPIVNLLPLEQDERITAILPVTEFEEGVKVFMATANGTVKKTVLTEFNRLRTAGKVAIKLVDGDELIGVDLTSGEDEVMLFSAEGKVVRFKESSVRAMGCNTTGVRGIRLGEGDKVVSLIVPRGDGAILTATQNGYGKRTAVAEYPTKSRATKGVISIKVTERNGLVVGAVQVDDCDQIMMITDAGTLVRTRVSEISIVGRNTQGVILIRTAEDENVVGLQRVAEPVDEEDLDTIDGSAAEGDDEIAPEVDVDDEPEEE
S. aureus GyrB ATPase, sequence (P0A0K8 whole entry): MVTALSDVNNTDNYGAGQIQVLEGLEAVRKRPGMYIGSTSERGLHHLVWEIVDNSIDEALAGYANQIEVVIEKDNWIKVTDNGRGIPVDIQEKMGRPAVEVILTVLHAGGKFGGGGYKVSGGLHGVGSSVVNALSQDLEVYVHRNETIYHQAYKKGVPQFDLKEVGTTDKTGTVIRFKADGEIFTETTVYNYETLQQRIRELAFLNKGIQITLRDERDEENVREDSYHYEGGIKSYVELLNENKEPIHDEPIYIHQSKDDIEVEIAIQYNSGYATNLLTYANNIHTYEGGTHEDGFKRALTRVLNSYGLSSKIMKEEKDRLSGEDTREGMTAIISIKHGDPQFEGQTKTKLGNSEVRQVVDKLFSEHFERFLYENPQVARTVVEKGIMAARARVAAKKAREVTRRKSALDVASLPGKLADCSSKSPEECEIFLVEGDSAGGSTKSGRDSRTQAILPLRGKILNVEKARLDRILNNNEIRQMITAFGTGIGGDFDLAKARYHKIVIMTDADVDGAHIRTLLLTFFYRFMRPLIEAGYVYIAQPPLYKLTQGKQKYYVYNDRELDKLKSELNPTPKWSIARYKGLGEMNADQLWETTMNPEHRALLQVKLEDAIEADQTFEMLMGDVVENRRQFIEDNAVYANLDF

| Structure (SMILES) | inhibition at 1 µM |
| --- | --- |
| Cc1[nH]c(C(=O)N[C@@H]2CCN(c3nc(-c4cnc(N5CCN(CC6CCCCC6)CC5)cn4)c(C(=O)O)s3)C[C@@H]2C)c(Cl)c1Cl [Example 178, 4-{5-[4-(cyclohexylmethyl)piperazin-1-yl]pyrazin-2-yl}-2-[(3S,4R)-4-{[(3,4-dichloro-5-methyl-1H-pyrrol-2-yl)carbonyl]amino}-3-methylpiperidin-1-yl]-1,3-thiazole-5-carboxylic acid] | 102% |
| CCC(CC)N1CCN(c2cnc(-c3nc(N4CC[C@@H](NC(=O)c5[nH]c(C)c(Cl)c5Cl)[C@@H](C)C4)sc3C(=O)O)cn2)CC1 [Example 179, 2-[(3S,4R)-4-{[(3,4-dichloro-5-methyl-1H-pyrrol-2-yl)carbonyl]amino}-3-methylpiperidin-1-yl]-4-{5-[4-(pentan-3-yl)piperazin-1-yl]pyrazin-2-yl}-1,3-thiazole-5-carboxylic acid] | 104% |
| CCN(CC)CCN1CCN(c2cnc(-c3nc(N4CC[C@@H](NC(=O)c5[nH]c(C)c(Cl)c5Cl)[C@@H](C)C4)sc3C(=O)O)cn2)CC1 [Example 180, 2-[(3S,4R)-4-{[(3,4-dichloro-5-methyl-1H-pyrrol-2-yl)carbonyl]amino}-3-methylpiperidin-1-yl]-4-(5-{4-[2-(diethylamino)ethyl]piperazin-1-yl}pyrazin-2-yl)-1,3-thiazole-5-carboxylic acid] | 103% |
| Cc1[nH]c(C(=O)N[C@@H]2CCN(c3nc(-c4cnc(N5CCN[C@H](C)C5)cn4)c(C(=O)O)s3)C[C@@H]2C)c(Cl)c1Cl [Example 181, 2-[(3S,4R)-4-{[(3,4-dichloro-5-methyl-1H-pyrrol-2-yl)carbonyl]amino}-3-methylpiperidin-1-yl]-4-{5-[(3R)-3-methylpiperazin-1-yl]pyrazin-2-yl}-1,3-thiazole-5-carboxylic acid] | 101% |
| Cc1[nH]c(C(=O)N[C@@H]2CCN(c3nc(-c4cnc(N5CCN(CCO)CC5)cn4)c(C(=O)O)s3)C[C@@H]2C)c(Cl)c1Cl [Example 182, 2-[(3S,4R)-4-{[(3,4-dichloro-5-methyl-1H-pyrrol-2-yl)carbonyl]amino}-3-methylpiperidin-1-yl]-4-{5-[4-(2-hydroxyethyl)piperazin-1-yl]pyrazin-2-yl}-1,3-thiazole-5-carboxylic acid] | 117% |
| Cc1[nH]c(C(=O)N[C@@H]2CCN(c3nc(-c4cnc(N5CCN(CC6CCCO6)CC5)cn4)c(C(=O)O)s3)C[C@@H]2C)c(Cl)c1Cl (stereo partly drawn) [Example 183, 2-[(3S,4R)-4-{[(3,4-dichloro-5-methyl-1H-pyrrol-2-yl)carbonyl]amino}-3-methylpiperidin-1-yl]-4-{5-[4-(tetrahydrofuran-2-ylmethyl)piperazin-1-yl]pyrazin-2-yl}-1,3-thiazole-5-carboxylic acid] | 116% |
| CO[C@H]1CN(c2nc(-c3nccc(N4CCCCC4)n3)c(C(=O)O)s2)CC[C@H]1NC(=O)c1[nH]c(C)c(Cl)c1Cl [Example 189, 2-[(3S,4R)-4-{[(3,4-dichloro-5-methyl-1H-pyrrol-2-yl)carbonyl]amino}-3-methoxypiperidin-1-yl]-4-[4-(piperidin-1-yl)pyrimidin-2-yl]-1,3-thiazole-5-carboxylic acid] | 106% |
| CO[C@H]1CN(c2nc(-c3nccc(N4CCOCC4)n3)c(C(=O)O)s2)CC[C@H]1NC(=O)c1[nH]c(C)c(Cl)c1Cl [Example 190, 2-[(3S,4R)-4-{[(3,4-dichloro-5-methyl-1H-pyrrol-2-yl)carbonyl]amino}-3-methoxypiperidin-1-yl]-4-[4-(morpholin-4-yl)pyrimidin-2-yl]-1,3-thiazole-5-carboxylic acid] | 100% |
| CO[C@H]1CN(c2nc(-c3nccc(N4CCN(C)CC4)n3)c(C(=O)O)s2)CC[C@H]1NC(=O)c1[nH]c(C)c(Cl)c1Cl [Example 191, 2-[(3S,4R)-4-{[(3,4-dichloro-5-methyl-1H-pyrrol-2-yl)carbonyl]amino}-3-methoxypiperidin-1-yl]-4-[4-(4-methylpiperazin-1-yl)pyrimidin-2-yl]-1,3-thiazole-5-carboxylic acid] | 102% |
| CO[C@H]1CN(c2nc(-c3nccc(N4CCN(CC(C)C)CC4)n3)c(C(=O)O)s2)CC[C@H]1NC(=O)c1[nH]c(C)c(Cl)c1Cl [Example 192, 2-[(3S,4R)-4-{[(3,4-dichloro-5-methyl-1H-pyrrol-2-yl)carbonyl]amino}-3-methoxypiperidin-1-yl]-4-{4-[4-(2-methylpropyl)piperazin-1-yl]pyrimidin-2-yl}-1,3-thiazole-5-carboxylic acid] | 108% |
| CCN1CCN(c2ccnc(-c3nc(N4CC[C@@H](NC(=O)c5[nH]c(C)c(Cl)c5Cl)[C@@H](OC)C4)sc3C(=O)O)n2)CC1 [Example 193, 2-[(3S,4R)-4-{[(3,4-dichloro-5-methyl-1H-pyrrol-2-yl)carbonyl]amino}-3-methoxypiperidin-1-yl]-4-[4-(4-ethylpiperazin-1-yl)pyrimidin-2-yl]-1,3-thiazole-5-carboxylic acid] | 109% |
| CO[C@H]1CN(c2nc(-c3cnc(NCC4CN5CCN4CC5)cn3)c(C(=O)O)s2)CC[C@H]1NC(=O)c1[nH]c(C)c(Cl)c1Cl (stereo partly drawn) [Example 195, 4-{5-[(1,4-diazabicyclo[2.2.2]oct-2-ylmethyl)amino]pyrazin-2-yl}-2-[(3S,4R)-4-{[(3,4-dichloro-5-methyl-1H-pyrrol-2-yl)carbonyl]amino}-3-methoxypiperidin-1-yl]-1,3-thiazole-5-carboxylic acid] | 118% |
| CCCO[C@H]1CN(c2nc(-c3ncnn3C)c(C(=O)O)s2)CC[C@H]1NC(=O)c1cc(Cl)c(C)[nH]1 [Example 200, 2-[(3S,4R)-4-{[(4-chloro-5-methyl-1H-pyrrol-2-yl)carbonyl]amino}-3-propoxypiperidin-1-yl]-4-(1-methyl-1H-1,2,4-triazol-5-yl)-1,3-thiazole-5-carboxylic acid] | 106% |
| CCCO[C@H]1CN(c2nc(-c3nccn3CCOC)c(C(=O)O)s2)CC[C@H]1NC(=O)c1cc(Cl)c(C)[nH]1 [Example 201, 2-[(3S,4R)-4-{[(4-chloro-5-methyl-1H-pyrrol-2-yl)carbonyl]amino}-3-propoxypiperidin-1-yl]-4-[1-(2-methoxyethyl)-1H-imidazol-2-yl]-1,3-thiazole-5-carboxylic acid] | 105% |
| CCCO[C@H]1CN(c2nc(-c3ncccc3F)c(C(=O)O)s2)CC[C@H]1NC(=O)c1cc(Cl)c(C)[nH]1 [Example 202, 2-[(3S,4R)-4-{[(4-chloro-5-methyl-1H-pyrrol-2-yl)carbonyl]amino}-3-propoxypiperidin-1-yl]-4-(3-fluoropyridin-2-yl)-1,3-thiazole-5-carboxylic acid] | 103% |
| CCCO[C@H]1CN(c2nc(-c3cnccn3)c(C(=O)O)s2)CC[C@H]1NC(=O)c1cc(Cl)c(C)[nH]1 [Example 203, 2-[(3S,4R)-4-{[(4-chloro-5-methyl-1H-pyrrol-2-yl)carbonyl]amino}-3-propoxypiperidin-1-yl]-4-(pyrazin-2-yl)-1,3-thiazole-5-carboxylic acid] | 108% |
| CCCO[C@H]1CN(c2nc(-c3ncnn3C)c(C(=O)O)s2)CC[C@H]1NC(=O)c1[nH]c(C)c(Cl)c1C#N [Example 208, 2-[(3S,4R)-4-{[(4-chloro-3-cyano-5-methyl-1H-pyrrol-2-yl)carbonyl]amino}-3-propoxypiperidin-1-yl]-4-(1-methyl-1H-1,2,4-triazol-5-yl)-1,3-thiazole-5-carboxylic acid] | 108% |
| CCCO[C@H]1CN(c2nc(-c3nccn3CCOC)c(C(=O)O)s2)CC[C@H]1NC(=O)c1[nH]c(C)c(Cl)c1C#N [Example 209, 2-[(3S,4R)-4-{[(4-chloro-3-cyano-5-methyl-1H-pyrrol-2-yl)carbonyl]amino}-3-propoxypiperidin-1-yl]-4-[1-(2-methoxyethyl)-1H-imidazol-2-yl]-1,3-thiazole-5-carboxylic acid] | 105% |
| CCCO[C@H]1CN(c2nc(-c3ncccc3F)c(C(=O)O)s2)CC[C@H]1NC(=O)c1[nH]c(C)c(Cl)c1C#N [Example 210, 2-[(3S,4R)-4-{[(4-chloro-3-cyano-5-methyl-1H-pyrrol-2-yl)carbonyl]amino}-3-propoxypiperidin-1-yl]-4-(3-fluoropyridin-2-yl)-1,3-thiazole-5-carboxylic acid] | 109% |
| CCCO[C@H]1CN(c2nc(-c3cnccn3)c(C(=O)O)s2)CC[C@H]1NC(=O)c1[nH]c(C)c(Cl)c1C#N [Example 211, 2-[(3S,4R)-4-{[(4-chloro-3-cyano-5-methyl-1H-pyrrol-2-yl)carbonyl]amino}-3-propoxypiperidin-1-yl]-4-(pyrazin-2-yl)-1,3-thiazole-5-carboxylic acid] | 107% |
| CCCO[C@H]1CN(c2nc(-c3ncnn3C)c(C(=O)O)s2)CC[C@H]1NC(=O)c1[nH]c(C)c(Cl)c1Cl [Example 215] | 106% |
| CCCO[C@H]1CN(c2nc(-c3nccn3CCOC)c(C(=O)O)s2)CC[C@H]1NC(=O)c1[nH]c(C)c(Cl)c1Cl [Example 216, 2-[(3S,4R)-4-{[(3,4-dichloro-5-methyl-1H-pyrrol-2-yl)carbonyl]amino}-3-propoxypiperidin-1-yl]-4-[1-(2-methoxyethyl)-1H-imidazol-2-yl]-1,3-thiazole-5-carboxylic acid] | 109% |
| CCCO[C@H]1CN(c2nc(-c3ncccc3F)c(C(=O)O)s2)CC[C@H]1NC(=O)c1[nH]c(C)c(Cl)c1Cl [Example 217, 2-[(3S,4R)-4-{[(3,4-dichloro-5-methyl-1H-pyrrol-2-yl)carbonyl]amino}-3-propoxypiperidin-1-yl]-4-(3-fluoropyridin-2-yl)-1,3-thiazole-5-carboxylic acid] | 113% |
